Assay [1] concerns rHMPV-GFP (recombinant HMPV CAN97-83, MPV-GFP1). As to the kind of experiment: HMPV antiviral assay (eGFP fluorescence in Vero E6 cells). The assay is classed as cell-based. As to conditions: read-out: rHMPV-GFP EC50. As to the method: HMPV antiviral activity was evaluated using a recombinant version of HMPV CAN97-83 engineered to contain the coding sequence for enhanced green fluorescence protein (eGFP) in the 3′ end of the virus genome (MPV-GFP1, ViraTree). Vero E6 cells (ATCC #CCL-7) were seeded at a density of 12,000 cells/100 μL/well into 96-well cell plates (VENDOR) one day prior to the assay. On the day of screening, the cell culture medium was aspirated from the wells and cells were washed twice with serum-free Eagle's Modified Essential Medium (EMEM, ATCC #) containing 1% penicillin-streptomycin (Invitrogen) (SF-EMEM). Cell washes were performed by dispensing 100 μL SF-EMEM per well and immediately aspirating the wash medium from the well. Following the second wash step, serum-free OptiMEM (Invitrogen, Cat No.) (SF-OptiMEM) containing 0.5 μg/mL TPCK-Trypsin (VENDOR) and 1% penicillin-streptomycin was added to the cells at 50 μL/well. Compounds were added into the 96-well plates using a JANUS automated liquid handling system (VENDOR). Compounds were initially diluted 1:50 into an intermediate 96-well plate containing SF-OptiMEM prior to transfer to the assay plate (25 μL/well). Each of the test compounds was tested in duplicate wells at final concentrations starting from 8 μM or 2 μM using ½ stepwise dilutions for a total of 8 points. Virus infection was performed by preparing a working stock of MPV-GFP1 at a multiplicity of infection (MOI) equal to 0.05/25 μL and aliquoting 25 μL of virus inoculum to the compound and positive control wells. SF-OptiMEM was added (25 μL/well) to the appropriate wells to serve as a virus-free negative control for the assay. The final DMSO concentration of all wells is 0.5%. Plates were incubated at 32° C., 5% CO2 for 5 days. After 5 days incubation, eGFP fluorescence intensity was measured at […] using a Spectramax i3X plate reader (VENDOR). Percent viral inhibition was calculated using the following equation: y=[[…]]×100 Where XQ is the fluorescence intensity measured in a well containing recombinant MPV-GFP1-infected, compound-treated cells and XP is the average fluorescence intensity measured in the wells containing untreated cells infected with recombinant virus. EC50 values were then calculated by non-linear regression using a four parameter curve logistic equation. The curve fit model employed was XLFit Dose Response One Site Model 200: y=(A+(B/(1+((x/C)^D)))) Where A is the minimum y value, B is the maximum y value, C is the log EC50 value, and D is the slope factor. The EC50 of each compound is listed in Table 2 and EC50 ranges are as follows: A<0.2 μM; B≥0.2 μM.

Assay [2] has as its system Human RSV-A (“Long” strain). As to the kind of experiment: RSV-A assay (CPE, ATPlite readout in Hep-2 cells). The assay is classed as cell-based. As to conditions: Hep-2 cells, MOI 0.1, 5-day incubation, ATPlite, read-out: Human RSV-A (“Long” strain) EC50. The text has this:
Hep-2 cells, (originally derived from tumors grown in irradiated-cortisonised weanling rats that had been injected with epidermoid carcinoma tissue from a person's larynx, but later found to be indistinguishable from HeLa cells by PCR DNA analysis), were used for the culturing of genotype A, “Long” strain RSV. Flasks were inoculated with RSV and viral stocks were collected once cytopathic effect (CPE) was greater than 90%. Viral stocks in 25% sucrose media were snap frozen using liquid nitrogen to increase viral stability. Viral stock titers were quantified by tissue culture infectious dose 50% (TCID50) using 8,000 cells per well and 3-fold viral dilutions across a 96-well plate, cultured for 4 days. Viral stock titers were also quantified by a plaque forming unit assay, as described elsewhere.
Following extensive parameter testing, the final assay is run as follows: Hep-2 cells are seeded into the inner 60 wells of a 96-well plate at 8,000 cells per well in a volume of 50 μL using Growth Media (DMEM without phenol red, 1% L-Glut, 1% Penn/Strep, 1% nonessential amino acids, 10% heat-inactivated FBS). 2-fold serial dilutions of control and test compounds are added to the wells in duplicate in a total volume of 25 μL. Viral stock is then added to the wells at a multiplicity of infection (MOI) of 0.1 in a volume of 25 μL, bringing the total volume of each well to 100 μL. The MOI is calculated using the PFU/mL, or TCID50 if unavailable. Each 96-well plate has a control column of 6 wells with cells and virus but no compound (negative control, max CPE), a column with cells but no compound or virus (positive control, minimum CPE), and a column with no cells or virus or compound (background plate/reagent control). The control wells with cells but no virus are given an additional […], of growth media containing an equal quantity of sucrose as those wells receiving the viral stock in order to keep consistent in media and volume conditions. The outer wells of the plate are filled with 125 μL of moat media (DMEM, 1% Penn/Strep) to act as a thermal and evaporative moat around the test wells. Following a 5-day incubation period, the plates are read using ATPlite (50 uL added per well), which quantifies the amount of ATP (a measure of cell health) present in each well. Assay plates are read using the Envision luminometer. […] EC50 ranges are as follows: A<0.2 μM; B≥0.2 μM.

Setting [3] is: human respiratory syncytial virus, 120 h.

Where two headings read alike, the source gives them in different places. Some results are limits rather than exact numbers.

By EC50 is commonly meant the midpoint of the concentration-response curve. As for `Cn1cc2cc(C(=O)NC[C@](O)(c3cc4c(c(-c5ccc(F)cc5)n3)OC[C@@]4(N)C(F)(F)F)C3CC3)cc(OC3CC3)c2n1` [Example 66, N—((S)-2-((R)-3-amino-7-(4-fluorophenyl)-3-(trifluoromethyl)-2,3-dihydrofuro[2,3-c]pyridin-5-yl)-2-cyclopropyl-2-hydroxyethyl)-7-cyclopropoxy-2-methyl-2H-indazole-5-carboxamide], the concentration giving a half-maximal response (EC50) in assay [1] (Vero C1008, 120 h) is under 200 nM; in assay [2] (setting [3]), under 200 nM.

For the compound `N[C@@]1(C(F)(F)F)COc2c1cc([C@@](O)(CNC(=O)c1ccc(OC3CC3)c(OC3CC3)c1)C1CC1)nc2-c1ccc(F)c(Cl)c1` [Example 29], the concentration giving a half-maximal response (EC50) in assay [1] (Vero C1008, 120 h) is over 200 nM; in assay [2] (human respiratory syncytial virus, in Homo sapiens, 120 h), under 200 nM.

Regarding `COc1cc(C(=O)NC[C@@](O)(c2cc3c(c(-c4ccc(F)cc4)n2)OC[C@]3(N)C(F)(F)F)C(F)(F)F)ccc1OC1CC1` [Example 4, N—((R)-2-((S)-3-amino-7-(4-fluorophenyl)-3-(trifluoromethyl)-2,3-dihydrofuro[2,3-c]pyridin-5-yl)-3,3,3-trifluoro-2-hydroxypropyl)-4-cyclopropoxy-3-methoxybenzamide], the concentration for a half-maximal effect (EC50) in assay [1] (Vero C1008, 120 h) is over 200 nM; in assay [2] (setting [3]), over 200 nM.

For `COc1cc(C(=O)NC[C@](O)(c2cc3c(c(-c4ccc(F)cc4)n2)OC[C@@]3(N)C(F)(F)F)C(F)(F)F)ccc1OC1CC1` [Example 1], the EC50 in assay [1] (Vero C1008, 120 h) is over 200 nM; in assay [2] (setting [3]), under 200 nM.

Consider `N[C@@]1(C(F)(F)F)COc2c1cc([C@@](O)(CNC(=O)c1ccc(OC3CC3)c(OC3CC3)c1)C1CC1)nc2-c1ccc(F)c(F)c1` [Example 27, N—((S)-2-((R)-3-amino-7-(3,4-difluorophenyl)-3-(trifluoromethyl)-2,3-dihydrofuro[2,3-c]pyridin-5-yl)-2-cyclopropyl-2-hydroxyethyl)-3,4-dicyclopropoxybenzamide], for which the EC50 is under 200 nM in assay [1] (Vero C1008, 120 h) and under 200 nM in assay [2] (setting [3]).

As for `COc1cc(C(=O)NC[C@](O)(c2cc3c(c(-c4ccc(F)c(Cl)c4)n2)OC[C@@]3(N)C(F)(F)F)C2CC2)ccc1OC1CC1` [Example 25, N—((S)-2-((R)-3-amino-7-(3-chloro-4-fluorophenyl)-3-(trifluoromethyl)-2,3-dihydrofuro[2,3-c]pyridin-5-yl)-2-cyclopropyl-2-hydroxyethyl)-4-cyclopropoxy-3-methoxybenzamide], the half-maximal effective concentration (EC50) in assay [1] (Vero C1008, 120 h) was under 200 nM; in assay [2] (setting [3]) it was under 200 nM.

As for `N[C@@]1(C(F)(F)F)COc2c1cc([C@@](O)(CNC(=O)c1cc(OC3CC3)c3ncccc3c1)C1CC1)nc2-c1ccc(F)cc1` [Example 11, N—((S)-2-((R)-3-amino-7-(4-fluorophenyl)-3-(trifluoromethyl)-2,3-dihydrofuro[2,3-c]pyridin-5-yl)-2-cyclopropyl-2-hydroxyethyl)-8-cyclopropoxyquinoline-6-carboxamide], the concentration giving a half-maximal response (EC50) in assay [1] (Vero C1008, 120 h) is over 200 nM; in assay [2] (setting [3]), under 200 nM.

On to `C[C@](O)(CNC(=O)c1ccc(OC2CC2)c(OC2CC2)c1)c1cc2c(c(-c3ccc(F)c(F)c3)n1)OC[C@@]2(N)C(F)(F)F` [Example 26, N—((S)-2-((R)-3-amino-7-(3,4-difluorophenyl)-3-(trifluoromethyl)-2,3-dihydrofuro[2,3-c]pyridin-5-yl)-2-hydroxypropyl)-3,4-dicyclopropoxybenzamide], for which the EC50 was under 200 nM in assay [1] (Vero C1008, 120 h) and under 200 nM in assay [2] (setting [3]).

As to `COc1cc(C(=O)NC[C@](O)(c2cc3c(c(-c4ccc(F)cc4)n2)OC[C@@]3(NC(=O)COC(C)=O)C(F)(F)F)C(F)(F)F)ccc1OC1CC1` [Example 13, 2-(((R)-5-((S)-3-(4-cyclopropoxy-3-methoxybenzamido)-1,1,1-trifluoro-2-hydroxypropan-2-yl)-7-(4-fluorophenyl)-3-(trifluoromethyl)-2,3-dihydrofuro[2,3-c]pyridin-3-yl)amino)-2-oxoethyl acetate], the EC50 was over 200 nM in assay [1] (Vero C1008, 120 h) and under 200 nM in assay [2] (setting [3]).

Regarding `COc1cc(C(=O)NC[C@@](O)(CF)c2cc3c(c(-c4ccc(F)cc4)n2)OC[C@@]3(N)C(F)(F)F)ccc1OC1CC1` [Example 8], the EC50 in assay [1] (Vero E6 cells, MOI 0.05, 5 days at 32° C., eGFP fluorescence) was under 200 nM; in assay [2] it was under 200 nM.

As for `N[C@@]1(C(F)(F)F)COc2c1cc([C@@](O)(CNC(=O)c1cc(OC3CC3)c3nn(C4CC4)cc3c1)C1CC1)nc2-c1ccc(F)cc1` [Example 55c, N—((S)-2-((R)-3-amino-7-(4-fluorophenyl)-3-(trifluoromethyl)-2,3-dihydrofuro[2,3-c]pyridin-5-yl)-2-cyclopropyl-2-hydroxyethyl)-7-cyclopropoxy-2-cyclopropyl-2H-indazole-5-carboxamide], the concentration for a half-maximal effect (EC50) was under 200 nM in assay [1] (Vero C1008, 120 h) and under 200 nM in assay [2] (setting [3]).

In the case of `COc1cc(C(=O)NC[C@](C)(O)c2cc3c(c(-c4ccc(F)c(F)c4)n2)OC[C@@]3(N)C(F)(F)F)ccc1OC1CC1` [Example 22, N—((S)-2-((R)-3-amino-7-(3,4-difluorophenyl)-3-(trifluoromethyl)-2,3-dihydrofuro[2,3-c]pyridin-5-yl)-2-hydroxypropyl)-4-cyclopropoxy-3-methoxybenzamide], the EC50 in assay [1] (Vero C1008, 120 h) was under 200 nM; in assay [2] (setting [3]), under 200 nM.

As for `COc1cc(C(=O)NC[C@](O)(c2cc3c(c(-c4ccc(F)cc4)n2)OC[C@]3(N)C(F)(F)F)C(F)(F)F)ccc1OC1CC1` [Example 3, N—((S)-2-((S)-3-amino-7-(4-fluorophenyl)-3-(trifluoromethyl)-2,3-dihydrofuro[2,3-c]pyridin-5-yl)-3,3,3-trifluoro-2-hydroxypropyl)-4-cyclopropoxy-3-methoxybenzamide], the EC50 in assay [1] (Vero C1008, 120 h) is over 200 nM; in assay [2] (setting [3]) it was under 200 nM.

With `COc1cc(C(=O)NC[C@](O)(c2cc3c(c(-c4ccc(F)c(F)c4)n2)OC[C@@]3(N)C(F)(F)F)C2CC2)ccc1OC1CC1` [Example 23, N—((S)-2-((R)-3-amino-7-(3,4-difluorophenyl)-3-(trifluoromethyl)-2,3-dihydrofuro[2,3-c]pyridin-5-yl)-2-cyclopropyl-2-hydroxyethyl)-4-cyclopropoxy-3-methoxybenzamide], the EC50 in assay [1] (Vero C1008, 120 h) was under 200 nM; in assay [2] (setting [3]), under 200 nM.

`N[C@@]1(C(F)(F)F)COc2c1cc([C@@](O)(CNC(=O)c1ccc(OC3CC3)c(OC3CC3)c1)C1CC1)nc2-c1ccc(F)cc1` [Example 19, N—((S)-2-((R)-3-amino-7-(4-fluorophenyl)-3-(trifluoromethyl)-2,3-dihydrofuro[2,3-c]pyridin-5-yl)-2-cyclopropyl-2-hydroxyethyl)-3,4-dicyclopropoxybenzamide]: the EC50 in assay [1] (Vero C1008, 120 h) was under 200 nM; in assay [2] (setting [3]), under 200 nM.
